ChEMBL document CHEMBL1201862, “PubChem BioAssay data set” (2004)
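96-well plates; 48 h exposure; 5 concentrations. Endpoints by linear interpolation between flanking doses. Not reached: highest tested concentration assigned. The concentration for 50% growth inhibition is given as GI50.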 The source made the active and inactive calls. Cut-off read from the data, not from the text of the source: active = GI50 up to about 1.1 µM and inactive = higher.

Legend:
Assay in all cases: NCI-60 cell line screen, 48 h
PC-3 = system: PC-3
SN12C = system: SN12C
HL-60 = system: HL-60
A549 = system: A549
SK-MEL-5 = system: SK-MEL-5
SNB-75 = system: SNB-75
K562 = system: K562
NCI/ADR-RES = system: NCI/ADR-RES
CAKI-1 = system: CAKI-1
MDA-N = system: MDA-N
U-251 = system: U-251
NCI-H23 = system: NCI-H23
RPMI-8226 = system: RPMI-8226
MDA-MB-435 = system: MDA-MB-435
UACC-257 = system: UACC-257
DU-145 = system: DU-145
SF-539 = system: SF-539
HOP-92 = system: HOP-92
CCRF-CEM = system: CCRF-CEM
OVCAR-4 = system: OVCAR-4

Structure (SMILES)	GI50 (PC-3)	GI50 (SN12C)	GI50 (HL-60)	GI50 (A549)	GI50 (SK-MEL-5)	GI50 (SNB-75)	GI50 (K562)	GI50 (NCI/ADR-RES)	GI50 (CAKI-1)	GI50 (MDA-N)	GI50 (U-251)	GI50 (NCI-H23)	GI50 (RPMI-8226)	GI50 (MDA-MB-435)	GI50 (UACC-257)	GI50 (DU-145)	GI50 (SF-539)	GI50 (HOP-92)	GI50 (CCRF-CEM)	GI50 (OVCAR-4)
CN(C)CCNc1ccc2ncn3c4ccc(O)cc4c(=O)c1c23	1.42 µM (inactive)	0.562 µM (active)	0.647 µM (active)	0.0661 µM (active)	0.714 µM (active)	0.404 µM (active)	0.762 µM (active)	3 µM (inactive)	0.224 µM (active)	2.88 µM (inactive)	0.214 µM (active)	0.614 µM (active)	0.735 µM (active)	2.41 µM (inactive)	5.74 µM (inactive)	0.315 µM (active)	0.46 µM (active)	2.54 µM (inactive)	0.171 µM (active)	1.04 µM (active)
O=C(N/N=C/c1ccco1)c1cc(I)cc(I)c1O	35.2 µM (inactive)	9.06 µM (inactive)	10.5 µM (inactive)	31.9 µM (inactive)	12.4 µM (inactive)	37.2 µM (inactive)	27.6 µM (inactive)	20.7 µM (inactive)	19.4 µM (inactive)	22.9 µM (inactive)		21.7 µM (inactive)	15.2 µM (inactive)	16.9 µM (inactive)		23.4 µM (inactive)	11.8 µM (inactive)	15.6 µM (inactive)	> 50 µM (inactive)	35.8 µM (inactive)
CCOC(=O)n1c(=O)nc2c3c(ncn21)Oc1c(c(-c2ccccc2)nn1-c1ccccc1)C3c1ccc(Cl)cc1 (stereo unspecified)	1.73 µM (inactive)	1.82 µM (inactive)	1.26 µM (inactive)	1.65 µM (inactive)	1.7 µM (inactive)	1.91 µM (inactive)	1.08 µM (active)	1.73 µM (inactive)	1.61 µM (inactive)	1.65 µM (inactive)	1.69 µM (inactive)	1.69 µM (inactive)	1.46 µM (inactive)	1.67 µM (inactive)	1.8 µM (inactive)	1.71 µM (inactive)	1.56 µM (inactive)	1.36 µM (inactive)	1.1 µM (active)	1.15 µM (inactive)
C/C=C/[C@@H]1O[C@H](CC#C[Si](C)(C)C)[C@@]2(C=O)C(C)=CC[C@H](C(C)C)[C@@H]12	15.4 µM (inactive)	17.7 µM (inactive)	3.81 µM (inactive)	23.1 µM (inactive)	17.6 µM (inactive)	21.6 µM (inactive)	14.7 µM (inactive)	23.3 µM (inactive)	1.94 µM (inactive)	19.4 µM (inactive)	17.3 µM (inactive)	22.2 µM (inactive)	5.7 µM (inactive)	20 µM (inactive)	12.9 µM (inactive)	21.3 µM (inactive)	21.6 µM (inactive)	17.4 µM (inactive)	2.41 µM (inactive)	19.3 µM (inactive)
CN(CCO)CC(=O)CC(O)(C(F)(F)F)C(F)(F)F	26.2 µM (inactive)		26.4 µM (inactive)	30.4 µM (inactive)	16.3 µM (inactive)	14.5 µM (inactive)	42.4 µM (inactive)	41 µM (inactive)	30.1 µM (inactive)	32.1 µM (inactive)	28.6 µM (inactive)	23.6 µM (inactive)	32.1 µM (inactive)	36 µM (inactive)	37.6 µM (inactive)	42.7 µM (inactive)	34.7 µM (inactive)	22.5 µM (inactive)	32.1 µM (inactive)	50 µM (inactive)
O=C1CSC(c2ccccc2O)N1c1ccc(-n2c(-c3ccccc3)nc3ccccc3c2=O)cc1 (stereo unspecified)	12.9 µM (inactive)	30.3 µM (inactive)	21.6 µM (inactive)	38.4 µM (inactive)	16.1 µM (inactive)	54.1 µM (inactive)	15.2 µM (inactive)	21 µM (inactive)	29.2 µM (inactive)	28.2 µM (inactive)	5.7 µM (inactive)	31.6 µM (inactive)	21.1 µM (inactive)	24.4 µM (inactive)	26.7 µM (inactive)	29.2 µM (inactive)	16.6 µM (inactive)	20.8 µM (inactive)	14.7 µM (inactive)	30.4 µM (inactive)
COc1ccc(C(SC2C(O)C(CO)OC2n2ccc(=O)[nH]c2=O)(c2ccccc2)c2ccc(OC)cc2)cc1 (stereo unspecified)	14.9 µM (inactive)	14.4 µM (inactive)	25.6 µM (inactive)	16.4 µM (inactive)	14.7 µM (inactive)	18.5 µM (inactive)	31.6 µM (inactive)	18.9 µM (inactive)	30.4 µM (inactive)	9.66 µM (inactive)	13.9 µM (inactive)	17.7 µM (inactive)	32.8 µM (inactive)	9.1 µM (inactive)	16.1 µM (inactive)	18.4 µM (inactive)	22 µM (inactive)	15.6 µM (inactive)	23.8 µM (inactive)	19.7 µM (inactive)
NC1=C(Cl)C(=O)c2c(O)ccc(O)c2C1=O	3.47 µM (inactive)	3.28 µM (inactive)	2.55 µM (inactive)	2.2 µM (inactive)	0.735 µM (active)	5.41 µM (inactive)	22.4 µM (inactive)	3.61 µM (inactive)	16.5 µM (inactive)	1.77 µM (inactive)	4.12 µM (inactive)	2.05 µM (inactive)	4.75 µM (inactive)	2.01 µM (inactive)	1.6 µM (inactive)	2.2 µM (inactive)	2.84 µM (inactive)	12.1 µM (inactive)	4.09 µM (inactive)	4.11 µM (inactive)
CCN(CC)CCCNc1ccc2nc(C)n3c4ccc(O)cc4c(=O)c1c23	1.47 µM (inactive)	5.15 µM (inactive)	1.61 µM (inactive)	2.11 µM (inactive)	10.3 µM (inactive)	0.881 µM (active)	2.97 µM (inactive)	12.6 µM (inactive)	4.78 µM (inactive)	7.53 µM (inactive)	5.36 µM (inactive)	1.34 µM (inactive)	1.9 µM (inactive)	9.89 µM (inactive)	15.5 µM (inactive)	5.46 µM (inactive)	9.38 µM (inactive)	2.89 µM (inactive)	1.79 µM (inactive)	4.65 µM (inactive)
OC[C@H]1O[C@@H](Oc2cc(O)cc(/C=C/c3ccc(O)cc3)c2)[C@H](O)[C@@H](O)[C@@H]1O [PICEID]	> 100 µM (inactive)	> 100 µM (inactive)	> 100 µM (inactive)	> 100 µM (inactive)	> 100 µM (inactive)	> 100 µM (inactive)	> 100 µM (inactive)	> 100 µM (inactive)	> 100 µM (inactive)	> 100 µM (inactive)	> 100 µM (inactive)		> 100 µM (inactive)	> 100 µM (inactive)	> 100 µM (inactive)	> 100 µM (inactive)	> 100 µM (inactive)	> 100 µM (inactive)	> 100 µM (inactive)	> 100 µM (inactive)
